Measured values: patent publication US10160771B2, “Hepatitis C virus inhibitors and uses thereof in preparation of drugs” (priority 2014, dated 2018)

Tests used:
[1] = Cell Titer-fluor cell activity assay in HCV-1b replicon cells (CC50); assay type: cell-based
How it was run: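 CC50 derived by nonlinear fitting of inhibition % from Cell Titer-fluor signal (405/515 nm, 30 min). Cells: genotype 1b Con1 replicon carrying E1202G, T1280I, K1846T, seeded 8000/well with compound for 3 days, 37 °C, 0.5% DMSO; 6 points, 5-fold dilution, top 100, 10 or 1 nM, duplicates.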

[2] = system: HCV genotype 1b (HCV-1b) replicon cells; test: HCV genotype 1b replicon luciferase assay (EC50); assay type: cell-based, hepatitis C virus genotype 1b (Con1 clone); conditions: Hepatitis C virus, 72 h, 3 days, luciferase (Bright-Glo)
How it was run: (§1)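 Replicon cells, 8000/well, 3 d, 37 °C; 6-pt 5-fold dilution from 100, 10 or 1 nM, 0.5% DMSO, duplicates; Bright-Glo luminescence → EC50 (nonlinear fit). 1a = H77 K1691R/K2040R/S2204I; 1b = Con1 E1202G/T1280I/K1846T.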

[3] = system: HCV genotype 1a (HCV-1a) replicon cells; test: HCV genotype 1a replicon luciferase assay (EC50); assay type: cell-based, hepatitis C virus genotype 1a (H77 clone); conditions: Hepatitis C virus, 72 h, 3 days, luciferase (Bright-Glo)
How it was run: as §1

Compound | CC50 at 3 days [1] | EC50 [2] | EC50 [3]
COC(=O)N[C@H](C(=O)N1CCC[C@H]1c1ncc(-c2ccc(-c3ccc(-c4cnc([C@H]5C6CCC(C6)[C@@H]5C(=O)NCc5cccnc5C(F)(F)F)[nH]4)cc3)cc2)[nH]1)C(C)C (stereo partly drawn) [AA_216_A] | > 1 nM | 0.001 to 0.1 nM | 10 to 100 nM
COC(=O)N[C@H](C(=O)N1CCC[C@H]1c1ncc(-c2ccc(-c3ccc(-c4cnc([C@@H]5C6CCC(C6)[C@H]5C(=O)NCc5cccnc5C(F)(F)F)[nH]4)cc3)cc2)[nH]1)C(C)C (stereo partly drawn) [AA_216_B] | > 1 nM | 0.001 to 0.1 nM | 10 to 100 nM
COC(=O)N[C@H](C(=O)N1CCC[C@H]1c1ncc(-c2ccc(-c3ccc(-c4cnc([C@H]5C6CCC(C6)[C@@H]5C(=O)NCc5cccnc5C)[nH]4)cc3)cc2)[nH]1)C(C)C (stereo partly drawn) [AA_217] | > 1 nM | 1 to 10 nM | 10 to 100 nM
COC(=O)N[C@H](C(=O)N1CCC[C@H]1c1ncc(-c2ccc(-c3ccc(-c4cnc([C@H]5C6CCC(C6)[C@@H]5C(=O)NCC5CNc6ccccc6C5)[nH]4)cc3)cc2)[nH]1)C(C)C (stereo partly drawn) [AA_218] | > 1 nM | 0.101 to 1 nM | 10 to 100 nM
COC(=O)N[C@H](C(=O)N1CCC[C@H]1c1ncc(-c2ccc(-c3ccc(-c4cnc(C5C6CCC(C6)[C@H]5C(=O)NCc5nccs5)[nH]4)cc3)cc2)[nH]1)[C@@H](C)OC (stereo partly drawn) [AA_219_A] | > 1 nM | 0.001 to 0.1 nM | 1 to 10 nM
COC(=O)N[C@H](C(=O)N1CCC[C@H]1c1ncc(-c2ccc(-c3ccc(-c4cnc(C5C6CCC(C6)[C@H]5C(=O)NCCO)[nH]4)cc3)cc2)[nH]1)[C@@H](C)OC (stereo partly drawn) [AA_220_A] | > 1 nM | 0.101 to 1 nM | 10 to 100 nM
COC(=O)N[C@H](C(=O)N1CCC[C@H]1c1ncc(-c2ccc(-c3ccc(-c4cnc(C5C6CCC(C6)[C@@H]5C(=O)NCCO)[nH]4)cc3)cc2)[nH]1)[C@@H](C)OC (stereo partly drawn) [AA_220_B] | > 1 nM | 1 to 10 nM | 10 to 100 nM
COC(=O)N[C@H](C(=O)N1CCC[C@H]1c1ncc(-c2ccc(-c3ccc(-c4cnc(C5C6CCC(C6)[C@H]5C(=O)NCc5ccccn5)[nH]4)cc3)cc2)[nH]1)[C@@H](C)OC (stereo partly drawn) [AA_221_A] | > 1 nM | 0.001 to 0.1 nM | 1 to 10 nM
COC(=O)N[C@H](C(=O)N1CCC[C@H]1c1ncc(-c2ccc(-c3ccc(-c4cnc(C5C6CCC(C6)[C@@H]5C(=O)NCc5ccco5)[nH]4)cc3)cc2)[nH]1)[C@@H](C)OC (stereo partly drawn) [AA_222_A] | > 1 nM | 0.001 to 0.1 nM | 10 to 100 nM
COC(=O)N[C@H](C(=O)N1CCC[C@H]1c1ncc(-c2ccc(-c3ccc(-c4cnc(C5C6CCC(C6)[C@H]5C(=O)NCc5ccc(OC)nc5)[nH]4)cc3)cc2)[nH]1)[C@@H](C)OC (stereo partly drawn) [AA_223_A] | > 1 nM | 0.101 to 1 nM | 10 to 100 nM
COC(=O)N[C@H](C(=O)N1CCC[C@H]1c1ncc(-c2ccc(-c3ccc(-c4cnc(C5C6CCC(C6)[C@@H]5C(=O)NCc5ccc(OC)nc5)[nH]4)cc3)cc2)[nH]1)[C@@H](C)OC (stereo partly drawn) [AA_223_B] | > 1 nM | 0.101 to 1 nM | 10 to 100 nM
COC(=O)N[C@H](C(=O)N1CCC[C@H]1c1ncc(-c2ccc(-c3ccc(-c4cnc([C@H]5C6CCC(C6)[C@@H]5C(=O)NCc5cccnc5F)[nH]4)cc3)cc2)[nH]1)C(C)C (stereo partly drawn) [AA_224_A] | > 1 nM | 0.001 to 0.1 nM | 1 to 10 nM
COC(=O)N[C@H](C(=O)N1CCC[C@H]1c1ncc(-c2ccc(-c3ccc(-c4cnc([C@@H]5C6CCC(C6)[C@H]5C(=O)NCc5cccnc5F)[nH]4)cc3)cc2)[nH]1)C(C)C (stereo partly drawn) [AA_224_B] | > 1 nM | 0.001 to 0.1 nM | 1 to 10 nM
COC(=O)N[C@H](C(=O)N1CCC[C@H]1c1ncc(-c2ccc(-c3ccc(-c4cnc(C5[C@H]6CC[C@H](C6)[C@H]5C(=O)NCc5cccnc5F)[nH]4)cc3)cc2)[nH]1)C(C)C (stereo partly drawn) [AA_224_ENDOA2] | > 1 nM | 0.001 to 0.1 nM | 0.101 to 1 nM
COC(=O)N[C@H](C(=O)N1CCC[C@H]1c1ncc(-c2ccc(-c3ccc(-c4cnc(C5C6CCC(C6)[C@@H]5C(=O)NCc5cccc(N)c5)[nH]4)cc3)cc2)[nH]1)[C@@H](C)OC (stereo partly drawn) [AA_226] | > 1 nM | 0.001 to 0.1 nM | 10 to 100 nM
COC(=O)N[C@H](C(=O)N1CCC[C@H]1c1ncc(-c2ccc(-c3ccc(-c4cnc([C@H]5C6CCC(C6)[C@@H]5C(=O)NCc5ccc(N)cc5)[nH]4)cc3)cc2)[nH]1)[C@@H](C)OC (stereo partly drawn) [AA_227] | > 1 nM | 0.101 to 1 nM | 10 to 100 nM
COC(=O)N[C@H](C(=O)N1CCC[C@H]1c1ncc(-c2ccc(-c3ccc(-c4cnc([C@H]5C6CCC(C6)[C@@H]5C(=O)NCc5cccnc5O)[nH]4)cc3)cc2)[nH]1)C(C)C (stereo partly drawn) [AA_228] | > 1 nM | 0.001 to 0.1 nM | 1 to 10 nM

Compound | CC50 at 3 days [1] | EC50 [2] | EC50 [3]
COC(=O)N[C@H](C(=O)N1C[C@@H](OC)C[C@H]1c1ncc(-c2ccc(-c3ccc(-c4cnc([C@@H]5C6CCC(C6)[C@H]5C(=O)NCc5cccnc5)[nH]4)cc3)cc2)[nH]1)C(C)C (stereo partly drawn) [AA_230_A] | > 1 nM | 0.001 to 0.1 nM | 0.101 to 1 nM
COC(=O)N[C@H](C(=O)N1C[C@@H](OC)C[C@H]1c1ncc(-c2ccc(-c3ccc(-c4cnc([C@H]5C6CCC(C6)[C@@H]5C(=O)NCc5cccnc5)[nH]4)cc3)cc2)[nH]1)C(C)C (stereo partly drawn) [AA_230_B] | > 1 nM | 0.001 to 0.1 nM | 1 to 10 nM
COC(=O)N[C@H](C(=O)N1C[C@@H](OC)C[C@H]1c1ncc(-c2ccc(-c3ccc(-c4cnc([C@@H]5C6CCC(C6)[C@H]5C(=O)NCc5cccnc5)[nH]4)cc3)cc2)[nH]1)[C@@H](C)OC (stereo partly drawn) [AA_231_A] | > 1 nM | 0.001 to 0.1 nM | 0.101 to 1 nM
COC(=O)N[C@H](C(=O)N1C[C@@H](OC)C[C@H]1c1ncc(-c2ccc(-c3ccc(-c4cnc([C@H]5C6CCC(C6)[C@@H]5C(=O)NCc5cccnc5)[nH]4)cc3)cc2)[nH]1)[C@@H](C)OC (stereo partly drawn) [AA_231_B] | > 1 nM | 0.001 to 0.1 nM | 1 to 10 nM
COC(=O)N[C@H](C(=O)N1CCC[C@H]1c1ncc(-c2ccc(-c3ccc(-c4cnc([C@H]5C6CCC(C6)[C@@H]5C(=O)NCc5ccc(C(F)(F)F)nc5)[nH]4)cc3)cc2)[nH]1)C(C)C (stereo partly drawn) [AA_232_A] | > 1 nM | 0.001 to 0.1 nM | 1 to 10 nM
COC(=O)N[C@H](C(=O)N1CCC[C@H]1c1ncc(-c2ccc(-c3ccc(-c4cnc([C@@H]5C6CCC(C6)[C@H]5C(=O)NCc5ccc(C(F)(F)F)nc5)[nH]4)cc3)cc2)[nH]1)C(C)C (stereo partly drawn) [AA_232_B] | > 1 nM | 0.001 to 0.1 nM | 1 to 10 nM
COC(=O)N[C@H](C(=O)N1CCC[C@H]1c1ncc(-c2ccc(-c3ccc(-c4cnc([C@@H]5C6CCC(C6)[C@H]5C(=O)NC(c5cccnc5)C(C)C)[nH]4)cc3)cc2)[nH]1)C(C)C (stereo partly drawn) [AA_233_B] | > 1 nM | 0.001 to 0.1 nM | 1 to 10 nM
COC(=O)N[C@H](C(=O)N1CCC[C@H]1c1ncc(-c2ccc(-c3ccc(-c4cnc([C@@H]5[C@H]6CC[C@H](C6)[C@H]5C(=O)N[C@H](c5cccnc5)C(C)C)[nH]4)cc3)cc2)[nH]1)C(C)C [AA_233_ENDOA2_A] | > 1 nM | 0.001 to 0.1 nM | 0.101 to 1 nM
COC(=O)N[C@H](C(=O)N1CCC[C@H]1c1ncc(-c2ccc(-c3ccc(-c4cnc(C5[C@H]6CC[C@H](C6)[C@H]5C(=O)N[C@@H](c5cccnc5)C(C)C)[nH]4)cc3)cc2)[nH]1)C(C)C (stereo partly drawn) [AA_233_ENDOA2_B] | > 1 nM | 0.001 to 0.1 nM | 10 to 100 nM
COC(=O)N[C@H](C(=O)N1CCC[C@H]1c1ncc(-c2ccc(-c3ccc(-c4cnc([C@H]5C6CCC(C6)[C@@H]5C(=O)NCc5cccnc5C5CC5)[nH]4)cc3)cc2)[nH]1)C(C)C (stereo partly drawn) [AA_234_A] | > 1 nM | 0.001 to 0.1 nM | 1 to 10 nM
COC(=O)N[C@H](C(=O)N1CCC[C@H]1c1ncc(-c2ccc(-c3ccc(-c4cnc([C@@H]5C6CCC(C6)[C@H]5C(=O)NCc5cccnc5C5CC5)[nH]4)cc3)cc2)[nH]1)C(C)C (stereo partly drawn) [AA_234_B] | > 1 nM | 0.001 to 0.1 nM | 10 to 100 nM
COC(=O)N[C@H](C(=O)N1CCC[C@H]1c1ncc(-c2ccc(-c3ccc(-c4cnc([C@H]5C6CCC(C6)[C@@H]5C(=O)NCc5cncc(C(C)C)c5)[nH]4)cc3)cc2)[nH]1)C(C)C (stereo partly drawn) [AA_235_A] | > 1 nM | 0.001 to 0.1 nM | 10 to 100 nM
COC(=O)N[C@H](C(=O)N1CCC[C@H]1c1ncc(-c2ccc(-c3ccc(-c4cnc([C@H]5C6CCC(C6)[C@@H]5C(=O)NCc5ccc(C(C)C)nc5)[nH]4)cc3)cc2)[nH]1)C(C)C (stereo partly drawn) [AA_236_A] | > 1 nM | 0.001 to 0.1 nM | 10 to 100 nM
COC(=O)N[C@H](C(=O)N1CCC[C@H]1c1ncc(-c2ccc(-c3ccc(-c4cnc([C@@H]5C6CCC(C6)[C@H]5C(=O)NCc5ccc(C(C)C)nc5)[nH]4)cc3)cc2)[nH]1)C(C)C (stereo partly drawn) [AA_236_B] | > 1 nM | 0.101 to 1 nM | 10 to 100 nM
COC(=O)N[C@H](C(=O)N1CCC[C@H]1c1ncc(-c2ccc(-c3ccc(-c4cnc([C@H]5C6CCC(C6)[C@@H]5C(=O)Nc5ccccc5)[nH]4)cc3)cc2)[nH]1)C(C)C (stereo partly drawn) [AA_237_A] | > 1 nM | 0.101 to 1 nM | 10 to 100 nM
COC(=O)N[C@H](C(=O)N1CCC[C@H]1c1ncc(-c2ccc3c(c2)C(F)(F)c2cc(-c4cnc(C5C6CCC(C6)[C@H]5C(=O)NCc5cccnc5)[nH]4)ccc2-3)[nH]1)C(C)C (stereo partly drawn) [AA_238] | > 1 nM | 0.001 to 0.1 nM | 1 to 10 nM
